In publication PMC11232401, “Characterization of antimalarial activity of artemisinin-based hybrid drugs” (Antimicrobial Agents and Chemotherapy, 2024):
Read-outs that look alike come from different tables or passages of the source.

How the values were obtained:
[1] = test system: P. falciparum 3D7 strain; parameters: method as in PMID 31290221, PMID 34832911, PMID 38559731; settings: asynchronous culture, SYBR Green I; read-out: IC50 (nM, median ± SEM) for P. falciparum 3D7 strain; cited from earlier work
[2] = test system: P. falciparum Dd2 strain; parameters: method as in PMID 31290221, PMID 34832911, PMID 38559731; settings: asynchronous culture, SYBR Green I; read-out: IC50 (nM, median ± SEM) for P. falciparum Dd2 strain; cited from earlier work
[3] = test system: P. berghei-infected mice; parameters: method as in PMID 31290221, PMID 34832911, PMID 38559731; settings: Peters test; cited from earlier work
[4] = test system: Ring stages of NF54 strain P. falciparum; test: Antiplasmodial activity of drug combinations (pLDH, isobologram/FIC); assay type: cell-based; settings: Plasmodium falciparum, mean (95% CI), tested in parallel with the combination of the same line
Protocol: The activity of the drug combinations against the P. falciparum NF54 strain was determined as described above. In each experiment, drugs were tested alone and in combination. Twofold serial dilutions of the drug solutions were made using fixed molar ratios of 1:1, 1:3, and 3:1 for each combination and using two technical replicates (ranging from 200 to 1.0 nM). Parasite growth was determined by the pLDH method, as described above. IC50 values for each drug alone or in combination were determined, and an isobologram analysis was performed by plotting the fractional inhibitory concentrations (FIC) for each combination and its component drugs separately. Individual FIC values were calculated as the IC50 of the drug combination divided by the IC50 of the drug in isolation. A dashed line was plotted to indicate any additive effect and distinguish antagonism (above the dashed line) from synergism (below the dashed line). Three independent experiments were performed, each one containing two replicates. Each experiment was used to represent an isobologram analysis [mean and 95% confidence interval (CI)].
Values represent one experiment; each concentration of drug combination was tested in technical duplicate. Black dashed line indicates ΣFIC = 1 (absolute additivity). […] FIC index <1 is synergistic, ~1 is additive, and >1 is antagonistic. Nondetrimental interactions are 0.25 <ΣFIC <1.25.
^[a] Values are the mean and 95% confidence interval of one experiment for each concentration of compounds in duplicate.

[5] = test system: heme (iron II)-initiated β-hematin formation; test: β-hematin inhibitory activity under reducing condition (R-BHIA); assay type: biochemical; settings: mean (95% CI)
Protocol: The compounds were dissolved in DMSO and diluted in DMSO to six different concentrations (1.0–32 mM). Hemin (Fe^III[PPIX]Cl) (BioXtra, Sigma-Aldrich) was first dissolved in 0.1 M NaOH and then suspended in an 80:20 vol/vol mixture of DMSO and propionate buffer (0.1 M, pH 5.6) to a stock solution at 8 mM. Reduced glutathione (GSH) was dissolved in 0.1 M NaOH and then adjusted to 10 mM using propionate buffer (0.1 M, pH 5.6). […] Then, 20 µL of the drug was added, and the plates were incubated for 2 h at 37°C. The plastic film was removed after drug incubation, 160 µL propionate buffer (1.0 M, pH 5.6) was added, and plates were incubated for 18 h at 37°C. BHIA under the oxidizing condition (O-BHIA) was prepared in parallel without adding GSH. Controls included wells without drugs and wells containing PBS 1× instead of propionate buffer. Afterward, the plates were centrifuged, the supernatant was discarded, and the pellets of β-hematin crystals were washed twice with pure DMSO and then water. The resulting β-hematin crystals were then dissolved in 200 µL 0.1 M NaOH and diluted to a 1:8 ratio. Aliquots were then transferred into a new plate and read by UV-visible absorbance at […]. Percent of BHIA was calculated in comparison to untreated wells (no drugs), and IC50 was then calculated. Two independent experiments were performed using three replicates of each drug concentration ([46]).
(§1) Figure S6: A summary of IC50 values derived from β-hematin inhibitory activity (BHIA). Footnotes for table: ^[a,b^] Values are mean and 95% confidence interval of one experiment, each concentration in triplicate. ^[a] Using heme (Fe[II]PPIX[Cl]) as a starting reagent. ^[b] Using hematin (Fe[III]PPIX[OH]) as a starting reagent. ^[c] […] CQ = chloroquine. R-BHIA = reducing β-hematin inhibitory activity. O-BHIA = oxidizing β-hematin inhibitory activity.

[6] = test system: hematin (iron III)-initiated β-hematin formation; test: β-hematin inhibitory activity under oxidizing condition (O-BHIA); assay type: biochemical; settings: hematin as starting reagent; mean (95% CI)
Protocol: The compounds were dissolved in DMSO and diluted in DMSO to six different concentrations (1.0–32 mM). Hemin (Fe^III[PPIX]Cl) (BioXtra, Sigma-Aldrich) was first dissolved in 0.1 M NaOH and then suspended in an 80:20 vol/vol mixture of DMSO and propionate buffer (0.1 M, pH 5.6) to a stock solution at 8 mM. Reduced glutathione (GSH) was dissolved in 0.1 M NaOH and then adjusted to 10 mM using propionate buffer (0.1 M, pH 5.6). For β-hematin inhibitory activity (BHIA) under the reducing condition (R-BHIA), hemin (10 µL) and GSH (10 µL) were distributed in a 96-well plate and homogenized, and the plates were sealed using a thin plastic film and incubated for 1 h at 37°C. Then, 20 µL of the drug was added, and the plates were incubated for 2 h at 37°C. The plastic film was removed after drug incubation, 160 µL propionate buffer (1.0 M, pH 5.6) was added, and plates were incubated for 18 h at 37°C. BHIA under the oxidizing condition (O-BHIA) was prepared in parallel without adding GSH. Controls included wells without drugs and wells containing PBS 1× instead of propionate buffer. Afterward, the plates were centrifuged, the supernatant was discarded, and the pellets of β-hematin crystals were washed twice with pure DMSO and then water. The resulting β-hematin crystals were then dissolved in 200 µL 0.1 M NaOH and diluted to a 1:8 ratio. Aliquots were then transferred into a new plate and read by UV-visible absorbance at […]. Percent of BHIA was calculated in comparison to untreated wells (no drugs), and IC50 was then calculated. Two independent experiments were performed using three replicates of each drug concentration ([46]).
as §1

[7] = test system: P. falciparum; test: Parasite growth inhibition (cell potency); assay type: cell-based; settings: Plasmodium falciparum; strain and exposure not stated at the place
[8] = test system: NF54 strain of P. falciparum; test: Ring-stage-specific drug activity (pLDH); assay type: cell-based; settings: Plasmodium falciparum, median ± SEM
Protocol: Each compound was dissolved in dimethyl sulfoxide (DMSO) and diluted in RPMI-1640 medium into seven different concentrations, which were tested against CQ-susceptible strains (NF54 or D10) or a CQ-resistant strain (W2). Each well of 96-well plates was filled with 100 µL drug and 100 µL parasitized RBC (asynchronous parasite culture), which were mixed to obtain a final parasitemia of 1.0% to 1.5% and 1.0% hematocrit. Plates were incubated for 72 h at 37°C in a standard gas mixture; then, parasite growth was determined by measuring the activity of the parasite lactate dehydrogenase (pLDH) ([38]). Briefly, at the end of incubation, the cultures were carefully resuspended, and 20 µL aliquots were removed and added to 100 µL Malstat reagent in a 96-well microplate. The Malstat reagent is made of 0.125% TritonX-100, 130 mM L-lactate, 30 mM Tris buffer, and 0.62 µM 3-acetylpyridine adenine dinucleotide. After that, 20 µL 1.9 µM nitro blue tetrazolium (NBT) and 0.24 µM phenazine ethyl sulfate were added to the plate. NBT was reduced to blueformazan and spectrophotometrically read at OD 650 nm using a Synergy 4 microplate reader (BioTek, Santa Clara, USA). […] IC50 values were expressed as means of two to three independent experiments, with each drug concentration in duplicate.
The NF54 strain of P. falciparum was employed to test the drugs’ activity against ring stages and asynchronous parasite culture (all stages). The ring stages were obtained by synchronization with D-Sorbitol using a standard method ([39]). Each well of 96-well plates was filled with 100 µL each drug and 100 µL culture containing ring-stage or asynchronous parasites, which were mixed to obtain a final parasitemia of 1.0% to 1.5% and 1.0% hematocrit. […] Plates were processed using the pLDH method, and IC50 values were calculated as described above. At least two to three independent experiments were performed, using two technical replicates.
^[a] Synchronized ring-stage parasites were incubated in the presence of compounds for 6 h, drugs were removed by washing, and plates were incubated for an additional 66 h. ^[b] Asynchronous parasites were incubated in the presence of compounds for 6 h, drugs were removed by washing, and plates were incubated for an additional 66 h. ^[c] Asynchronous parasites were incubated in the presence of compounds for 72 h. ^[a,b^] Experiments were performed in parallel. ^[d] […] Parasite viability was determined by parasite lactate dehydrogenase. Data are from three experiments performed in duplicate. MFQ = mefloquine; DHA = dihydroartemisinin; SEM = standard error of the mean.

[9] = test system: ring stages of NF54 strain of P. falciparum; test: Exposure time dependence in drug activity (pLDH); assay type: cell-based; settings: Plasmodium falciparum
Protocol: Each well of 96-well plates was filled with 100 µL drug and 100 µL culture containing ring-stage P. falciparum (NF54 strain) parasites, which were mixed to obtain a final parasitemia of 1.0% to 1.5% and 1.0% hematocrit. Plates were incubated at 37°C in a standard gas mixture. After 3 h and 6 h, plates were centrifuged, cell pellets were washed as described above then returned to the incubator for an additional 69 h and 66 h, respectively. In parallel, the same experiment was left without the washing step, enabling continuous drug exposure throughout. Plates were processed using the pLDH method, and IC50 values were calculated as described above. Three independent experiments were performed using two technical replicates.
Figure S2: Exposure time dependence of antiparasitic activity against ring stages of CQ-sensitive strain NF54 of P. falciparum. Data associated to Figure 2B in the main text of the manuscript. Footnotes for table: ^[a] Synchronized ring-stage parasites were incubated in the presence of compounds at indicated times, drugs were removed by washing, and plates were incubated until 72 h.^[b] Parasites were incubated in the presence of compounds for 72 h. ^[a,b^] Experiments were performed in parallel (paired). Parasite viability was determined by parasite lactate dehydrogenase (pLDH) assay. Data are from three experiments performed in duplicate.^ [c] […] MFQ = mefloquine. DHA = dihydroartemisinin; SEM = standard error of the mean; N.S. = not statistically significant.

[10] = in vivo; cited from earlier work

SMILES: C[C@@H]1CC[C@H]2[C@@H](C)C(=O)O[C@@H]3O[C@@]4(C)CC[C@@H]1[C@]32OO4 [ART, artemisinin]
- IC50 [1]: 26.8 ± 2.4 nM
- IC50 [2]: 11.3 ± 1.8 nM
- In vivo parasitemia reduction (%) [3]: 78.5 ± 9.0%

SMILES: CCN(CC)CCCC(C)Nc1ccnc2cc(Cl)ccc12 (stereo not drawn) [CQ, chloroquine, reference compound]
- IC50 ([4]; NF54, read-out: IC50, Drugs alone, ring stages NF54): 10.4 nM
- IC50 ([5]; reductive step 10 minutes, read-out: IC50 (µM) values of R-BHIA using heme (iron II), 10 minutes): 189 µM
- IC50 ([5]; reductive step 120 minutes, read-out: IC50 (µM) values of R-BHIA using heme (iron II), 120 minutes): 222 µM
- IC50 [6]: 228000 nM
- IC50 [7]: 14.5 nM
- IC50 [1]: 12.7 ± 2.5 nM
- IC50 [2]: 165 ± 16 nM

SMILES: OC(c1cc(C(F)(F)F)nc2c(C(F)(F)F)cccc12)C1CCCCN1 (stereo not drawn) [MFQ, mefloquine, reference compound]
- IC50 ([8]; asynchronous parasites, 6 h drug, wash, additional 66 h, read-out: IC50, Asynchronous): 61.6 ± 11.9 nM
- IC50 ([8]; asynchronous parasites, 72 h continuous drug, read-out: IC50, 72 h): 20.2 ± 1.3 nM
- IC50 ([8]; synchronized ring stages, 6 h drug, wash, additional 66 h, read-out: IC50, Ring stages): 37.2 ± 5.2 nM
- IC50 ([9]; NF54, 6 h drug pulse, wash, incubated until 72 h, median ± SEM, read-out: IC50, 6 h + 66 h): 37.2 ± 5.2 nM
- IC50 ([9]; NF54, 72 h continuous drug, median ± SEM, read-out: IC50, 72 h): 10.3 ± 2.6 nM
- IC50 ([9]; NF54, read-out: IC50, 3 h + 69 h, 3 h drug pulse, wash, incubated until 72 h, median ± SEM): > 600 nM
- IC50 ([4]; NF54, ring stages NF54, read-out: IC50, Drugs alone): 17 nM

SMILES: CC(C)(N)CNC(=O)C[C@H]1CC[C@]2(CC1)OO[C@]1(O2)C2CC3CC(C2)CC1C3 [OZ277]
- half-life (t1/2) [10]: 2 to 4 h
